pIC50: −log10 of the molar value. Where two headings read alike, the source gives them in different places.
Tests used:
[1] = target: T1, PAF radioreceptor (dog platelets) (Canis lupus familiaris, UniProt A0A8I3NSH0); test: PAF radioreceptor binding assay; conditions: 3H-PAF
T1 construct: Platelet rich plasma is prepared by centrifugation of citrate-treated dog blood; from tissue; host or cells: washed dog platelets
T1 sequence (A0A8I3NSH0 1-343): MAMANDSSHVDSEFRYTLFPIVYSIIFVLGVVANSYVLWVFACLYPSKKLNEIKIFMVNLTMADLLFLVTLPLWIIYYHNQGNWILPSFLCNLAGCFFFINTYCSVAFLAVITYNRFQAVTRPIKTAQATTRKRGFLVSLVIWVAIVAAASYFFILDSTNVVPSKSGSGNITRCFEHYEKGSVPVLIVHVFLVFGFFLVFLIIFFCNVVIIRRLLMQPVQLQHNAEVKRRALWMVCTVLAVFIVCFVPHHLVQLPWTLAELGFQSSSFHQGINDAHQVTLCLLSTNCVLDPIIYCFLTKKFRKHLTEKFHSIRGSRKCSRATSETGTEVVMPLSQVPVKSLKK
Procedure: (m) PAF Radioreceptor Binding Assay
Platelet rich plasma is prepared by centrifugation of citrate-treated dog blood. Acidification to pH 6.5 with 0.15M citric acid and centrifugation for 10 minutes at 1000 g yields a platelet pellet which is then washed by resuspension in EDTA-Phosphate Buffered Saline (PBS) and recentrifuged. The washed platelet preparation is adjusted to 2×10^7 platelets/50 μl in 0.1% BSA-PBS.
To a […] microfuge tube containing 50 μl silicone oil (specific gravity 1.023) is added buffer, PAF standard or analog, or an extract to bring the aqueous volume to 150 μl. 50 μl of ^3 H-PAF (10,000 cpm, 45 Ci/mM) is added followed by 2×10^7 dog platelets. After mixing, incubating for 10 minutes at room temperature, and centrifuging for 1 minute in a Beckman Microfuge B (8000 g), the pellet is removed by clipping off the tip of the tube, solubilizing the platelets with 200 μl of 50% methanol, and counting in 10 ml of Aquasol.

[2] = system: cutaneous anaphylaxis in passively sensitized rats; test: Inhibition of allergic mediator release in the rat passive cutaneous anaphylaxis test; format: in vivo, rat (Sprague-Dawley); conditions: po, p.o., read-out: ID50 inhibition of allergic mediator release (PCA test)
Procedure: (i) Inhibition of Cutaneous Anaphylaxis in Passively Sensitized Rats
(l) Preparation of Antiserum
IgE-containing rat antiserum (reaginic antiserum) was prepared according to the following procedure. Normal, male Sprague-Dawley rats (150-200 g) obtained from Charles River Laboratories, Wilmington, Mass., were immunized by an intraperitoneal injection of 0.5 ml Bordetella pertussis vaccine (Cannaught Laboratories, Willowdale, Toronto, Canada, 20 ou/ml) containing 100 μg egg albumin (Nutritional Biochemical Corp., Cleveland, Ohio). On day 16, Nippostrongylus brasiliensis (3000 larvae/0.1 ml) was administered subcutaneously and on day 21, 10 μg of egg albumin was administered intraperitoneally in 0.5 ml normal saline. On day 30, blood was collected by heart puncture and the serum was separated by centrifugation and refrigerated overnight at 5° C. […]
The passive cutaneous anaphylaxis (PCA) test was performed on 190-220 g male Sprague-Dawley rats (Charles River Breeding Laboratories, Wilmington, Mass.), in a manner similar to that described by J. Goose and A.M.J.N. Blair, Immunology, 16, 749(1969). […] The long and short axis of each wheal was measured with a metric vernier caliper and the average diameter was obtained for each reaction. […] The ID50 was calculated by the method of J. Berkson, J.Am.Stat.Assoc., 48, 565(1953).

[3] = system: leukotriene E induced bronchoconstriction; test: LTE-induced bronchoconstriction in guinea pigs, in vivo (i.v. / oral); parameters: species or system guinea pig (Hartley strain); conditions: Cavia porcellus, read-out: ID50 (the source's name)
[4] = system: acetylcholine-induced constriction in guinea pig ilea; test: Antagonism of acetylcholine-induced constriction in guinea pig ilea; conditions: 5.0×10^-7 M acetylcholine; read-out: IC50 antagonism of acetylcholine-induced constrictions
Procedure: (e) Antagonism of Acetylcholine-induced Constriction in Guinea Pig Ilea
Anticholinergic activity was determined on a segment of guinea pig ileum that was suspended in a 37° C. bath of oxygenated Tyrodes solution. At 4 minute intervals, the ileum was challenged with 5.0×10^-7 M acetylcholine for sufficient time to produce a peak contraction and then washed with fresh Tyrodes solution. After the tissue response to acetylcholine had stablized, the ileum was pretreated with the standard anticholinergic, atropine sulfate, for 1 minute prior to rechallenge with acetylcholine, the contraction recorded and the tissue washed with Tyrodes solution. […] The IC50 for atropine was 1×10^-8 M. THe IC50 's for test drugs were determined by this same procedure.

[5] = LD50 in mice (acute toxicity); conditions: mouse, in vivo
[6] = po, orally (2 hours pretreatment)

Row | Structure (SMILES) | pIC50 [1] | ED50 ([2]; 10 min, 10 minute pretreatment) [mg/kg] | ED50 ([3]; iv) [mg/kg] | ED50 [3, 6] [mg/kg] | pIC50 [4] | LD50 ([5]; ip, intraperitoneally) [mg/kg] | LD50 ([5]; po, orally) [mg/kg] | ED50 ([2]; 5 min, 5 minute pretreatment) [mg/kg]
1 | CC(C)c1ccc2nc3ccc(C(=O)NCCCCCCc4cccnc4)cn3c(=O)c2c1 [Compound C, 2-(1-Methylethyl)-N-[6-(3-pyridyl)hexyl]-11-oxo-11H-pyrido[2,1-b]quinazoline-8-carboxamide] | 6.00 |  |  |  |  |  |  | 
2 | CC(C)c1ccc2nc3ccc(C(=O)NCCCCn4ccnc4)cn3c(=O)c2c1 [Compound A, N-[4-(1H-imidazol-1-yl)butyl]-2-(1-methylethyl)-11-oxo-11H-pyrido[2,1-b]quinazoline-8-carboxamide] |  | 20 | 0.9 | 47 | 5.30 | 22 | 775 | 
3 | CC(C)c1ccc2nc3ccc(C(=O)NCCCCc4cccnc4)cn3c(=O)c2c1 [Compound B, 2-(1-methylethyl)-N-[4-(3-pyridyl)butyl]-11-oxo-11H-pyrido[2,1-b]quinazoline-8-carboxamide] | 6.35 |  | 0.3 | 60 | 5.15 |  | > 1000 | 21
